Calls of active or inactive are those of the source. The rule behind the calls is not given here.
Assays:
[1] = test system: HEK293T; assay: Antagonist activity at mouse succinate receptor 1 N181.31E/K2697.32N mutant expressed in HEK293T cells co-transfected with Galphai-Rluc8/Ggamma8-GFP2/Gbeta3 assessed as inhibition of succinate induced G protein activation incubated for 5 mins by luminescence based BRET assay; type: cell-based
[2] = test system: HEK293T; assay: Antagonist activity at mouse succinate receptor 1 N181.31E/K2697.32N/G84EL1W mutant expressed in HEK293T cells co-transfected with Galphai-Rluc8/Ggamma8-GFP2/Gbeta3 assessed as inhibition of succinate induced G protein activation incubated for 5 mins by luminescence based BRET assay; type: cell-based; conditions: filed as antagonist
[3] = cells; conditions: Mus musculus, HEK-293T, 5 min, read-out: pEC50 (converted)
[4] = Competitive binding affinity to humanized mouse succinate receptor 1 N181.31E/K2697.32N/G84EL1W mutant assessed as inhibition constant incubated for 5 mins in the presence of TUG-2384 by BRET assay
[5] = target: T1, Succinate receptor 1 (Homo sapiens, UniProt Q9BXA5); assay: Competitive binding affinity to N-terminal Nluc-tagged human succinate receptor 1 expressed in Flp-In-T-REx-293 cells assessed as inhibition constant incubated for 5 mins in the presence of TUG-2465 by BRET assay; type: cell-based
T1 sequence (Q9BXA5 whole entry): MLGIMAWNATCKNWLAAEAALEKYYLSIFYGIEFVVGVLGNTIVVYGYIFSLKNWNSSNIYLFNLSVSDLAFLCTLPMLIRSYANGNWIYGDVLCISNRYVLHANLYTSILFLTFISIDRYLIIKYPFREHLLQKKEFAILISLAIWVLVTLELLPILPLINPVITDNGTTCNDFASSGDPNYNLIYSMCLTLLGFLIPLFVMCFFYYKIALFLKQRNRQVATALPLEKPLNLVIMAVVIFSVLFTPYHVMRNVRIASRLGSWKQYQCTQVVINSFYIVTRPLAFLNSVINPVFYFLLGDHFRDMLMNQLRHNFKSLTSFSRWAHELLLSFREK

[6] = target: T2, Succinate receptor 1 (Homo sapiens) (UniProt Q9BXA5); conditions: Flp-In-T-REx-293, filed as agonist, time 30.0 min
T2 sequence (whole entry): T1 sequence (Q9BXA5 whole entry)

What does the source list for `CN1CCN(Cc2ccc(-c3cccc(C(=O)Nc4ccccc4CC(=O)O)c3)cc2)CC1`?
Activity [1]: inactive; Activity [2]: Active

Which EC50 [3] does the source give for `O=C(O)CCC(=O)O` [SUCCINIC ACID] here?
The EC50 was 52.5 µM.

For `O=C(O)CCc1cccc(Oc2ccc(Oc3cccc4cnccc34)cc2C(F)(F)F)c1`, which pKi [4] is on record?
Its pKi is under 4.5.

What about the Ki [5] of the same compound?
The Ki was 7.94 µM.

For `CC(C)(C)OC(=O)NCCCCCCOc1ccc(-c2cccc(C(=O)Nc3ccccc3CC(=O)O)c2)cc1`, which pEC50 [6] is on record?
Its pEC50 is “Active”.

Reference: ChEMBL document CHEMBL5331113 (J Med Chem, 2023)
